Literature values, collected in patent publication US7119079B2, “Bioadhesive pharmaceutical compositions” (priority 2003, dated 2006).

Assays:
[1] = tested on: Mycobacterium tuberculosis
[2] = tested on: distal ulcerative colitis; details: compared with hydrocortisone and mesalamine enemas
[3] = tested on: distal ulcerative colitis; details: enemas, patients with distal ulcerative colitis; fraction of patients

Row | Compound | activity against Mycobacterium tuberculosis [1] | effectiveness of enemas in distal ulcerative colitis [2] | patients showing improvement [3]
1 | Nc1ccc(C(=O)O)c(O)c1 [Compound 4-ASA, 4-amino salicylic acid] | bacteriostatic | as effective as hydrocortisone enemas and as effective as mesalamine enemas | 
2 | Nc1ccc(O)c(C(=O)O)c1 [mesalamine, 5-amino salicylic acid] |  |  | Three quarters
3 | Nc1ccc(S(=O)(=O)Nc2ccccn2)cc1 [sulfapyridine] |  |  | about one third
4 | O=C(O)c1cc(/N=N/c2ccc(S(=O)(=O)Nc3ccccn3)cc2)ccc1O [sulfasalazine, salicyl-azo-sulfapyridine] |  |  | Three quarters
